According to patent publication US20200383959A1, “THERAPEUTIC AGENT CONTAINING PYRANODIPYRIDINE COMPOUND” (Eisai R&D Management Co., Ltd., priority 2017, published 2020):

What was measured:
[1] = tested on: hyperalgesia to mechanical stimulation in STZ models; conditions: direct administration to the anterior cingulate cortex; Non Patent Literature 16; cited from earlier work
[2] = tested on: tremor induced by harmaline; experiment: Rat harmaline model (balance disorder / tremor score); assay type: in vivo; conditions: for Tremor score: 20 min before harmaline 20 mg/kg i.p., score 0-3
Method: [Test Example 2] Rat Harmaline Model
To confirm tremor-suppressing effect, a harmaline model test with rats was conducted. In this model, balance disorder observed after administration of harmaline serves as an evaluation index (Neuroscience Letter, 590, p 84-90 (2015)).
Four-week-old male SD rats (Charles River) were subjected to the test (two treatments in total, n=5 in each treatment). Balance disorder (one of tremor symptoms) induced by harmaline was used as an evaluation index (the above literature).
The compound was prepared for oral administration in 0.4% methylcellulose/5% Cremophor/5% 1 N hydrochloric acid/10% dimethylsulfoxide solution to reach an administration volume of 5 mL/kg, and orally administered. As a negative control, only the mixed solvent without the compound (Vehicle) was used. Harmaline (Sigma-Aldrich Co. LLC) was diluted with physiological saline (Otsuka Pharmaceutical Co., Ltd.) to prepare 4 mg/mL harmaline solution. Twenty minutes after administration of the compound, the 4 mg/mL harmaline solution was intraperitoneally administered (dose: 20 mg/kg). Balance disorder was observed during 10 minutes from 5 minutes to 15 minutes after the administration of harmaline, and scored in four grades of 0, 1, 2, and 3.
The results were represented as mean±standard deviation. Dunnett's multiple comparison test was used for statistical analysis, and results with p<0.05 were determined to be of statistically significant difference.

AMPA receptor = experiment: AMPA-induced intraneuronal calcium entry-suppressing action, primary culture of embryonic rat cerebral cortex neurons; assay type: cell-based; conditions: AMPA-induced increase of intracellular calcium, rat cortical neurons; read-out: IC50 for AMPA inhibition
Text: [Test Example 1] AMPA-Induced Intraneuronal Calcium Entry-Suppressing Action
With regard to the AMPA receptor inhibitory action of the compounds, AMPA-induced intraneuronal calcium entry-suppressing action was examined using a primary culture system of embryonic rat cerebral cortex neurons.
<Culture conditions> Whole fetuses were removed from the uteri of Wistar rats at embryonic day 18 (Charles River Japan) anesthetized with isoflurane. Whole brains were removed from the whole fetuses, and the cerebral cortex was separated in Leibovitz's L-15 medium, or Hanks balanced salt solution containing 20% fetal bovine serum. The resulting material was treated with trypsin/DNase solution at 37° C. for 45 to 60 minutes. After the serum was added to stop the trypsin reaction, the resulting material was centrifuged at 1200 to 1500 rpm for 3 to 5 minutes. After the supernatant was removed, Neurobasal medium (containing 2% B-27 supplement and the like; hereinafter “Neurobasal medium”) was added, and the cells were uniformly dispersed by gently pipetting. The cell suspension was slightly stirred, and then filtered through a nylon mesh filter. Viable cells were counted using a hemocytometer, and diluted with Neurobasal medium to 8 to 10×10^5 cells/mL. […]
On the day of the assay, the medium was removed and replaced with a calcium measurement solution containing 5 to 10 μmol/L of Fura 2-AM (140 mmol/L sodium chloride, 5 mmol/L potassium chloride, 2 mmol/L magnesium chloride, 3 mmol/L calcium chloride, 24 mmol/L D(+)-glucose, 10 mmol/L HEPES, 1 μmol/L MK-801, pH 7.4), and the cells were treated in a CO2 incubator (5% CO2, 37° C.) for 1 to 2 hours. […] The plates were subsequently placed on the Fluorescence Drug Screening System 6000 (Hamamatsu Photonics K.K.). […] Changes in calcium concentration were measured as the changes in fluorescence intensity at excitation wavelengths of 340 nm and 380 nm (measurement wavelength: 540 nm). The rate of change of the intracellular calcium concentration was calculated in accordance with the following equation: […]

pain induced by STZ = experiment: Rat STZ model, von Frey test; assay type: in vivo
Method: [Test Example 3] Rat STZ Model
To confirm analgesic effect in an SFN model, an STZ model test with rats was conducted. The effect of the compound on pain induced 2 weeks after administration of STZ was examined.
Seven-week-old male SD rats (Charles River) were used for the test. To STZ aliquoted in advance into shading bottles, ice-cooled physiological saline (Otsuka Pharmaceutical Factory, Inc.) was added to reach 65 mg/mL, and the resultant was gently inversion-mixed with ice-cooling to dissolve STZ. After dissolving, the resultant was stored under ice-cooling, and used within 20 minutes from the initiation of preparation. About 20 hours after fasting, the animals were anesthetize with isoflurane, and the 65 mg/mL STZ solution was administered to each animal from the tail vein with a volume of […] over about 15 seconds by using a 1 mL syringe and a 26G injection needle. After 14 days after the administration of STZ, body weight and pain response before drug administration were measured (see description below on pain response), and animals for each of which the 50% response threshold to mechanical stimulation was 6 g or lower in von Frey test were selected, and grouped so as to provide no difference in 50% response thresholds and body weight among groups.
The compound was prepared for oral administration in DMSO:1 mol/L HCl:Cremophor EL:0.5% methylcellulose=10:5:5:80 to reach an administration volume of 10 mL/kg, and orally administered. As a negative control, only the mixed solvent without the compound (Vehicle) was used.
Evaluation of pain response was performed by using von Frey test under blind conditions, without involving any measurer for pain response in grouping and administration. Measurement of 50% response thresholds by von Frey test was performed in accordance with a method by Chaplan et al. (J Neurosci Methods 1994; 53: 55-63) using von Frey filaments. Each animal was put in a measurement cage with a floor of a metal mesh about 30 minutes before scheduled measurement time, and left to stand to habituate to the environmental change, and after the animal was confirmed to become calm measurement was initiated. Avon Frey filament (bending force: 0.4, 0.6, 1, 2, 4, 6, 8, 15 g; starting from 2 g) was pressed vertically to the center of the sole of the left hind leg for about 6 seconds until the filament bent, and avoidance response (such as putting back the leg) was observed. In accordance with a Dixon's up-down method (Annu Rev Pharmacol Toxicol 1980; 20: 441-462), 50% response thresholds were calculated. Measurement was performed at four points of time: before drug administration on Day 14, and 30 minute, 90 minutes, and 180 minutes after the administration.
The results were represented as mean±standard deviation. Dunnett's multiple comparison test was used for statistical analysis, and a significance level of 5% was used for both sides in all cases.

[3] = tested on: dystonia in the dt^sz model; conditions: Non Patent Literature 21; cited from earlier work
[4] = tested on: tremor in a harmaline animal model; conditions: Non Patent Literature 7; cited from earlier work
human glioma cell line = conditions: Non Patent Literature 34; cited from earlier work
[5] = pre-administration, statement in words

**Q.** Which “Effect on fever and hyperalgesia to mechanical stimulation” value [1] does the source give for N#Cc1cc2c(cc1[N+](=O)[O-])=NC(=O)C(=O)N=2 [CNQX, 6-cyano-7-nitroquinoxaline-2,3-dione] here?
**A.** The value was “suppressed”.

**Q.** Which Tremor score ([2]; 1 mg/kg oral) does the source give for N#Cc1c(F)cccc1-c1cc2c(n(-c3cccnc3)c1=O)COc1cc(F)cnc1-2 [Compound (I), 2-fluoro-6-(3-fluoro-8-oxo-7-(pyridin-3-yl)-7,8-dihydro-6H-pyrano[3,2-b:5,4-b′]dipyridin-9-yl)benzonitrile] here?
**A.** The Tremor score was 1.3 ± 0.2.

**Q.** What about the Tremor score ([2]; 2 mg/kg oral) of the same molecule?
**A.** Its Tremor score is 0.6 ± 0.3.

**Q.** What about the Tremor score ([2]; 4 mg/kg oral) of the same molecule?
**A.** The Tremor score was 0.4 ± 0.2.

**Q.** What about the “Effect on tremor scores” value [2, 5] of the same molecule?
**A.** The value was “statistically significant reduction of tremor scores”.

**Q.** And the IC50 (AMPA receptor)?
**A.** The IC50 was 19.4 nM.

**Q.** And the 50% response threshold (pain induced by STZ; 0.6 mg/kg oral, Day 14, 30 min)?
**A.** The 50% response threshold was 7.3 ± 1.4 g.

**Q.** What about the 50% response threshold (pain induced by STZ; 0.6 mg/kg oral, Day 14, 90 min) of the same molecule?
**A.** Its 50% response threshold is 6.6 ± 1.4 g.

**Q.** What about the 50% response threshold (pain induced by STZ; 0.6 mg/kg oral, Day 14, 180 min) of the same molecule?
**A.** Its 50% response threshold is 5.2 ± 1.1 g.

**Q.** What about the 50% response threshold (pain induced by STZ; 0.6 mg/kg oral, Day 14, Pre (before drug administration)) of the same molecule?
**A.** The 50% response threshold was 3.6 ± 0.4 g.

**Q.** What about the 50% response threshold (pain induced by STZ; 2 mg/kg oral, Day 14, 30 min) of the same molecule?
**A.** The 50% response threshold was 9.5 ± 1.4 g.

**Q.** And the 50% response threshold (pain induced by STZ; 2 mg/kg oral, Day 14, 90 min)?
**A.** The 50% response threshold was 8.0 ± 1.3 g.

**Q.** And the 50% response threshold (pain induced by STZ; 2 mg/kg oral, Day 14, 180 min)?
**A.** Its 50% response threshold is 6.4 ± 1.1 g.

**Q.** And the 50% response threshold (pain induced by STZ; 2 mg/kg oral, Day 14, Pre (before drug administration))?
**A.** Its 50% response threshold is 3.6 ± 0.3 g.

**Q.** And the 50% response threshold (pain induced by STZ; 6 mg/kg oral, Day 14, 30 min)?
**A.** Its 50% response threshold is 12.5 ± 1.1 g.

**Q.** And the 50% response threshold (pain induced by STZ; 6 mg/kg oral, Day 14, 90 min)?
**A.** The 50% response threshold was 12.1 ± 1.5 g.

**Q.** And the 50% response threshold (pain induced by STZ; 6 mg/kg oral, Day 14, 180 min)?
**A.** The 50% response threshold was 9.6 ± 1.4 g.

**Q.** And the 50% response threshold (pain induced by STZ; 6 mg/kg oral, Day 14, Pre (before drug administration))?
**A.** The 50% response threshold was 3.6 ± 0.4 g.

**Q.** What about the Analgesic effect (pain induced by STZ; [5]) of the same molecule?
**A.** The Analgesic effect was “Significant analgesic effect”.

**Q.** For N#Cc1c(F)cccc1-c1cc2c(n(-c3cncnc3)c1=O)COc1cccnc1-2 [Compound (II), 2-fluoro-6-(8-oxo-7-(pyrimidin-5-yl)-7,8-dihydro-6H-pyrano[3,2-b:5,4-b′]dipyridin-9-yl)benzonitrile], which IC50 (AMPA receptor) is on record?
**A.** Its IC50 is 29 nM.

**Q.** For Cc1ncc(-n2c3c(cc(-c4cccc(F)c4C#N)c2=O)-c2ncccc2OC3)cn1 [Compound (III), 2-fluoro-6-(7-(2-methylpyrimidin-5-yl)-8-oxo-7,8-dihydro-6H-pyrano[3,2-b:5,4-b′]dipyridin-9-yl)benzonitrile], which IC50 (AMPA receptor) is on record?
**A.** Its IC50 is 44.3 nM.

**Q.** For NS(=O)(=O)c1cccc2c1c([N+](=O)[O-])cc1[nH]c(=O)c(=O)[nH]c12 [NBQX, 2,3-dioxo-6-nitro-1,2,3,4-tetrahydrobenzo[f]quinoxaline-7-sulfonamide], which Anti-dystonia action [3] is on record?
**A.** The Anti-dystonia action was “anti-dystonia action”.

**Q.** And the Effect on tremor [4]?
**A.** Its Effect on tremor is “suppresses tremor”.

**Q.** With O=C(O)Cn1c(=O)c(=O)[nH]c2cc([N+](=O)[O-])c(-n3ccnc3)cc21 [YM872] as the molecule, how does the Antitumor effect (human glioma cell line) read?
**A.** Its Antitumor effect is “antitumor effect”.
